# Active and inactive are the calls of the source.
# What was measured:
# [1] = target: DNA damage-inducible transcript 3 protein (Mus musculus, UniProt P35639); assay type: functional, Cricetulus griseus
# [2] = target: T1, Runt-related transcription factor 1/Core-binding factor subunit beta (Homo sapiens, UniProt Q01196+Q13951); assay: disruptors of Runt domain/CBFb-SMMHC interaction – biochemical, FRET, Cerulean-Runt, Venus-CBFb-SMMHC, uHTS, […] (AID 1434); assay type: protein assay
# [3] = target: T1, Runt-related transcription factor 1/Core-binding factor subunit beta; assay: Runt domain/CBFb-SMMHC interaction disruptors – biochemical, TR-FRET (AID 1438); assay type: protein assay
# [4] = target: Induced myeloid leukemia cell differentiation protein Mcl-1 (Homo sapiens, UniProt Q07820); assay type: functional
# Coagulation factor XII = Coagulation factor XII (Homo sapiens, UniProt P00748); assay type: functional;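 note: activated factor XIIa alpha cleaving a fluorogenic AMC peptide substrate; inhibitor potency from loss of enzyme activity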
# [5] = target: T2, Heat shock factor protein 1 (Mus musculus, UniProt P38532); assay: decrease of HSF1-responsive luciferase luminescence – cell-based, NIH3T3, dose retest, confirmation (AID 2382); assay type: functional;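 note: NIH3T3 fibroblasts with HSF1-driven luciferase reporter stressed by proteasome inhibitor MG132; luminescence from HSF1-driven luciferase expression after 8 hours of MG132 stress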
# T2 sequence (P38532 whole entry): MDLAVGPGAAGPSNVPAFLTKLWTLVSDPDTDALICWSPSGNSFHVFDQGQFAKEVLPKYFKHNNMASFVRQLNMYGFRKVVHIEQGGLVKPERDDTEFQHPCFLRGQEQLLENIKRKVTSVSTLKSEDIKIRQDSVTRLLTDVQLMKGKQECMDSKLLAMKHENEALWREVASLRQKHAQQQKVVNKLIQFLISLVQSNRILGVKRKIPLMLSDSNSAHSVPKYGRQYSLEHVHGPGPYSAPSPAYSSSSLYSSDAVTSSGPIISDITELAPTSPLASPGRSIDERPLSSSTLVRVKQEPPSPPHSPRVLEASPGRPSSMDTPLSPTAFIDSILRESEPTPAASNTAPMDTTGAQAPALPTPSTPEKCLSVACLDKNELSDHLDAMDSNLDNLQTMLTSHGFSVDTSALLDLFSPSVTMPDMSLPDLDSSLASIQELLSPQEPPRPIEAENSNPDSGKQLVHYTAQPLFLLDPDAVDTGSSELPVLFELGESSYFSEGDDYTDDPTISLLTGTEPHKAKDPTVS
# [6] = THP-1 cell cytotoxicity, dose response, cytotoxicity control for non-replicating M. tuberculosis project (AID 489025); assay type: functional
# [7] = HepG2 cell cytotoxicity, dose response, cytotoxicity control for non-replicating M. tuberculosis project (AID 489018); assay type: functional; details: Mycobacterium tuberculosis
# [8] = Vero E6 cell cytotoxicity, dose response, cytotoxicity control for non-replicating M. tuberculosis project, secondary assay (AID 492998); assay type: functional, VeroE6; details: Vero C1008
# cells = assay type: functional
# [9] = target: T3, DNA repair protein RAD52 homolog (Homo sapiens, UniProt P43351); assay type: functional, biochemical
# T3 sequence (P43351 whole entry): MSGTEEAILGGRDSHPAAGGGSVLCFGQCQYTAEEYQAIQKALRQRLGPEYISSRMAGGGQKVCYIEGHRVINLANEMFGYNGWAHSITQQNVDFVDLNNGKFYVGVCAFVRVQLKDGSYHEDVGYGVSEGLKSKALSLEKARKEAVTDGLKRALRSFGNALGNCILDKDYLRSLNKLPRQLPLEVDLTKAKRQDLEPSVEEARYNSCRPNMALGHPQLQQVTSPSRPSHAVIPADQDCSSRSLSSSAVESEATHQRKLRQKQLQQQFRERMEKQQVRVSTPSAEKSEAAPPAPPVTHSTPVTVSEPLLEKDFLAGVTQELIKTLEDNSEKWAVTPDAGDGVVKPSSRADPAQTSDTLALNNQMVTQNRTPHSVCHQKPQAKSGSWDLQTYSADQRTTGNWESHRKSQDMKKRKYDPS
# [10] = Luminescence Cell-Based Dose Response HTS to Identify Inhibitors of Luciferase Translation or Activity in H4-C Neuroglioblastoma Cells. [Related pubchem assays: 1813 (Primary HTS), 1827 (Project Summary)]; assay type: functional
# [11] = Luminescence Cell-Based Dose Response HTS to Identify Activators of Luciferase Translation or Activity in H4-C Neuroglioblastoma Cells. [Related pubchem assays: 1829 (Project Summary), 1814 (Primary HTS)]; assay type: functional
# [12] = luciferase reporter signal suppression in cells – H4 neuroglioma cells, luminescence, dose response (AID 1990); assay type: functional, cell-based
# [13] = Luminescence Cell-Based Dose Retest to Confirm Activators of 5'UTR Stem-Loop Driven Alpha-Synuclein mRNA Translation in H4 Neuroglioblastoma Cells. [Related pubchem assays (depositor defined):AID1813, AID1829]; assay type: functional
# [14] = Luminescence Cell-Based Dose Response HTS to Identify Activators of 5'UTR Stem-Loop Driven Prion Protein mRNA Translation in H4-C Neuroglioblastoma Cells. [Related pubchem assays: 1829 (Project Summary), 1814 (Primary HTS)]; assay type: functional
# [15] = Luminescence Cell-Based Dose HTS Response to Identify Inhibitors of 5'UTR Stem-Loop Driven Prion Protein mRNA Translation in H4-C Neuroglioblastoma Cells. [Related pubchem assays (depositor defined):AID1814, AID1827]; assay type: functional
# [16] = Luminescence Cell-Based Dose Response HTS to Identify Inhibitors of 5'UTR Stem-Loop Driven Prion Protein mRNA Translation in H4 Neuroglioblastoma Cells. [Related pubchem assays: 1827 (Project Summary), 1813 (Primary HTS)]; assay type: functional
# [17] = alpha-synuclein stem-loop luciferase translation blockers – H4 neuroglioma cells, luminescence, confirmation (AID 1988); assay type: functional, cell-based
# [18] = Luminescence Cell-Based Dose Confirmation HTS to Identify Inhibitors of 5'UTR Stem-Loop Driven Alpha-Synuclein mRNA Translation in H4 Neuroglioblastoma Cells. [Related pubchem assays: 1827 (Project Summary), 1813 (Primary HTS)]; assay type: functional
# [19] = target: T4, Peroxisome proliferator-activated receptor gamma (Homo sapiens, UniProt P37231); assay: competitive ligand displacement at PPARg – biochemical, TR-FRET, LanthaScreen, PPARg partial agonist project, dose response (AID 504446)
# T4 sequence (P37231 whole entry): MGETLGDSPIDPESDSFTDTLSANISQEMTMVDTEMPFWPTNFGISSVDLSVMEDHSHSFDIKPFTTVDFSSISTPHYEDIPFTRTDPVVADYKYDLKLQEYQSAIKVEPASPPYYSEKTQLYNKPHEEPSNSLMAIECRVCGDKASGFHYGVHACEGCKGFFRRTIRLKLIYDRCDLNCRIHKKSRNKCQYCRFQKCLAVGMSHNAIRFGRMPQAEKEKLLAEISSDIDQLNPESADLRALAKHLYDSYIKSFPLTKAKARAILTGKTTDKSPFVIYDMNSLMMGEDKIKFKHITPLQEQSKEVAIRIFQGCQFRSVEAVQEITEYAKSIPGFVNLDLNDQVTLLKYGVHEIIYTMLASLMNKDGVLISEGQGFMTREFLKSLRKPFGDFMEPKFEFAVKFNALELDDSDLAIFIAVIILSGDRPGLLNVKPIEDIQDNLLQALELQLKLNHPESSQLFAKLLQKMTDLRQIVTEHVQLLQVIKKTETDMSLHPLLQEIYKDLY
# [20] = target: T4, Peroxisome proliferator-activated receptor gamma; assay: competitive ligand displacement at PPARg – biochemical, fluorescence polarization, PolarScreen, PPARg partial agonist project, dose response (AID 504453)
# [21] = target: T4, Peroxisome proliferator-activated receptor gamma; assay: PPARg transcriptional activation, reporter cells – cell-based, luminescence, assay provider, dose response (AID 504447); assay type: functional
# [22] = target: Voltage-dependent T-type calcium channel subunit alpha-1H (Homo sapiens, UniProt O95180); assay: human CACNA1H calcium influx blockade – cell-based, synthetic library set 2, HEK293 HH8, Fluo-4, SAR follow-up (AID 493023); assay type: functional
# Mucolipin-3 = target: T5, Mucolipin-3 (Homo sapiens, UniProt Q8TDD5); assay: Dose response cell-based high-throughput screening assay for agonists of the transient receptor potential channel ML3 (TRPML3). [Related pubchem assays: 1526, 1424, 1448 ]; assay type: functional
# T5 sequence (Q8TDD5 whole entry): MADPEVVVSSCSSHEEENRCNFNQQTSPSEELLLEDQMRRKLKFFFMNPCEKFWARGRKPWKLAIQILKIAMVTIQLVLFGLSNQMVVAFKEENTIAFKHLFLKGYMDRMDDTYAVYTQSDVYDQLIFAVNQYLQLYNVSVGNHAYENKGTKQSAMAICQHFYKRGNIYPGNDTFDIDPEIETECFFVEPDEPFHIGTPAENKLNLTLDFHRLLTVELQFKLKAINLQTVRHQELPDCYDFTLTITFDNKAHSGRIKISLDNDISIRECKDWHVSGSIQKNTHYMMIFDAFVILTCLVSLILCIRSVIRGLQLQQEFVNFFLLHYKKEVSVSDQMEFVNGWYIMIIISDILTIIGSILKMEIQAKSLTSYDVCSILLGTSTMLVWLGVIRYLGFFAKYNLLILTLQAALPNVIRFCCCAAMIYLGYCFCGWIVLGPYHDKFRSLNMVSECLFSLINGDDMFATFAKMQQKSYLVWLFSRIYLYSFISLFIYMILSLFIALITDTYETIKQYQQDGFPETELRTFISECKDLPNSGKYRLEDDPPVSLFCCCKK
# [23] = microbe, parasite or virus in culture; assay type: functional; details: Mycobacterium tuberculosis
# Ion channel NompC = Ion channel NompC (Danio rerio, UniProt Q7T1G6); assay: Fluorescence counterscreen assay for TRPML3 agonists: dose response cell-based high-throughput screening assay to identify agonists of the transient receptor potential channel N1 (TRPN1). [Related pubchem assays: 1526, 1424, 1448 ]; assay type: functional
# [24] = target: T2, Heat shock factor protein 1; assay: enhancement of HSF1-driven luciferase signal – cell-based, NIH3T3, luminescence, dose retest, confirmation (AID 435004); assay type: functional;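 note: stress induced by proteasome inhibitor MG132 added 30 min after compound; luciferase reporter driven by HSF1 response element in NIH3T3 cells; actives raise luminescence as potentiators of the MG132 stress response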
# [25] = target: Type-1 angiotensin II receptor (Homo sapiens, UniProt P30556); assay: agonist activity at AGTR1 – cell-based, uHTS hits, selectivity assay for APJ receptor agonist project, dose response (AID 488865); assay type: functional;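 note: beta-arrestin recruitment to AT1 measured by enzyme fragment complementation luminescence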
# [26] = target: Heat shock protein HSP 90-alpha (Homo sapiens, UniProt P07900); assay type: functional, organism-based
# [27] = target: T6, High affinity choline transporter 1 (Homo sapiens, UniProt Q9GZV3); assay: human choline transporter blockers, potency – cell-based, 5-point CRC, membrane potential dye, dose response (AID 504840); assay type: functional
# T6 sequence (Q9GZV3 whole entry): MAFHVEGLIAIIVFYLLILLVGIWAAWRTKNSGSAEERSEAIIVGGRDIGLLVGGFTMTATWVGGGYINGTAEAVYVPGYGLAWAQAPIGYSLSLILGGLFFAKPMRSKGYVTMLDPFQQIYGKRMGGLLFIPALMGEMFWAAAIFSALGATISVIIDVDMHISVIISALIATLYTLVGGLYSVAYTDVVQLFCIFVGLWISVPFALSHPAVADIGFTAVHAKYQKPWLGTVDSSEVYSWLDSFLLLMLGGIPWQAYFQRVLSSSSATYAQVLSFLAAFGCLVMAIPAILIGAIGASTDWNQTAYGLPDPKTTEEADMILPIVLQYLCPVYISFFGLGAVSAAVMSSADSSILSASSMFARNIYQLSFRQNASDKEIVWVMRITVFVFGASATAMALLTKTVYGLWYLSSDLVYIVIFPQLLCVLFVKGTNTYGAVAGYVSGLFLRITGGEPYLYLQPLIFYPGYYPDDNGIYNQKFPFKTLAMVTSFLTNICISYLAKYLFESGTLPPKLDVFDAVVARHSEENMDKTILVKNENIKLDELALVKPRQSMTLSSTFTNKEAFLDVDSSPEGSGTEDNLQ
# INS1 = assay: INS-1E survival protection against cytokine death – cell-based, luminescence, retest, dose response (AID 449756); assay type: functional; details: Rattus norvegicus;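 note: cell death triggered by IL-1 beta plus TNF-alpha plus IFN-gamma mixture; protective hits raise ATP signal compared with cytokine alone wells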
# [28] = Fluorescence-based cell-based high throughput dose response assay for inhibitors of the interaction of nucleotide-binding oligomerization domain containing 2 (NOD2) and the receptor-interacting serine-threonine kinase 2 (RIPK2).; assay type: functional; details: Homo sapiens
# Beta Lactamase = Beta Lactamase (Pseudomonas aeruginosa, UniProt Q932Y6); assay: BLA reporter interference, concentration series – BLA reporter cells, FRET fluorescence, artefact control for NOD2-RIPK2 interaction inhibitor project, dose response (AID 651552); assay type: functional, cell-based
# Paired box protein Pax-8 = Paired box protein Pax-8 (Homo sapiens, UniProt Q06710); assay: PAX8 transcriptional activity inhibition in RMG-I – RMG-I cells, luciferase, cherry-pick, dose response (AID 687027); assay type: functional, cell-based;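 note: luciferase reporter driven by Pax8 target thyroperoxidase promoter measured by SteadyGlo luminescence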
# Chain of Paired box protein Pax-8 (Q06710 whole entry): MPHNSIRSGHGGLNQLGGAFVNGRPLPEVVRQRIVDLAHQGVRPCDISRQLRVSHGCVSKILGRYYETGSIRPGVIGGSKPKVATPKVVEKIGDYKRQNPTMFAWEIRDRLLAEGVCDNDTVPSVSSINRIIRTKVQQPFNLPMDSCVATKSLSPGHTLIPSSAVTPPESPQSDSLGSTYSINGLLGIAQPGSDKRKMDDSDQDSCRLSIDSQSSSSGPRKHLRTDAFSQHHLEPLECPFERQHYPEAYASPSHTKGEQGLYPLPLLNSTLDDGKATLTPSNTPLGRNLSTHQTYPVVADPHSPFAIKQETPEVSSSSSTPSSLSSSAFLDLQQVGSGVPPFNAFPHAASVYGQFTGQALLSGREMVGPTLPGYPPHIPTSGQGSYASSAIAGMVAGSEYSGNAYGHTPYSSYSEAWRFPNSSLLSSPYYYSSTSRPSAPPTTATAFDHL
# T1 sequence (Q01196 whole entry, the tested form may be a part): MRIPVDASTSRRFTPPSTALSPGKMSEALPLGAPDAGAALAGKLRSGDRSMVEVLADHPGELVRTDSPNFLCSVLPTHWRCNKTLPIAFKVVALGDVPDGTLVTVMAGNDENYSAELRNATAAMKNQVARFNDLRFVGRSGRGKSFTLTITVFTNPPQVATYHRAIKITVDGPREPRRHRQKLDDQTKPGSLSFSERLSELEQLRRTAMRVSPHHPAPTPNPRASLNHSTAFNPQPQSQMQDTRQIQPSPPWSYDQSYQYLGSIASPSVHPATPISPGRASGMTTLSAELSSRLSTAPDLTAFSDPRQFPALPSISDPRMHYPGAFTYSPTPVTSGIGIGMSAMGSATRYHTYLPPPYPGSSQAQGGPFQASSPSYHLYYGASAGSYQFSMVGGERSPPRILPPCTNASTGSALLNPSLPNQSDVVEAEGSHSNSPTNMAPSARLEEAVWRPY
# T1 sequence (Q13951 whole entry, the tested form may be a part): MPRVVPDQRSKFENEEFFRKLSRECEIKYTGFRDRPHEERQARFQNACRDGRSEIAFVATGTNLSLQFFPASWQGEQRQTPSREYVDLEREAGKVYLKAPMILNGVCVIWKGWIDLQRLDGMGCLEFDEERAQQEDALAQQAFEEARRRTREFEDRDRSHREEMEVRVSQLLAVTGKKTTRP
# Chain of Induced myeloid leukemia cell differentiation protein Mcl-1 (Q07820 whole entry): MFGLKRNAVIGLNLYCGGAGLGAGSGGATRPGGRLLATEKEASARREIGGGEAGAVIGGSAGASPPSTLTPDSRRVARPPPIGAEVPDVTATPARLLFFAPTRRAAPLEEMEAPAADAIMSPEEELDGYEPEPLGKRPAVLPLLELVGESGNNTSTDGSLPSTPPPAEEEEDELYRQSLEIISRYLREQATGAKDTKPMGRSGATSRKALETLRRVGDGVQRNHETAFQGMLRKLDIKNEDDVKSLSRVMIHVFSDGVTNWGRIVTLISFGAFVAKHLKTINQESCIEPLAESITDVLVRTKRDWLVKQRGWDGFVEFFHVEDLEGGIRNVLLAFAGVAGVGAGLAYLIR
# Chain of Voltage-dependent T-type calcium channel subunit alpha-1H (O95180 whole entry): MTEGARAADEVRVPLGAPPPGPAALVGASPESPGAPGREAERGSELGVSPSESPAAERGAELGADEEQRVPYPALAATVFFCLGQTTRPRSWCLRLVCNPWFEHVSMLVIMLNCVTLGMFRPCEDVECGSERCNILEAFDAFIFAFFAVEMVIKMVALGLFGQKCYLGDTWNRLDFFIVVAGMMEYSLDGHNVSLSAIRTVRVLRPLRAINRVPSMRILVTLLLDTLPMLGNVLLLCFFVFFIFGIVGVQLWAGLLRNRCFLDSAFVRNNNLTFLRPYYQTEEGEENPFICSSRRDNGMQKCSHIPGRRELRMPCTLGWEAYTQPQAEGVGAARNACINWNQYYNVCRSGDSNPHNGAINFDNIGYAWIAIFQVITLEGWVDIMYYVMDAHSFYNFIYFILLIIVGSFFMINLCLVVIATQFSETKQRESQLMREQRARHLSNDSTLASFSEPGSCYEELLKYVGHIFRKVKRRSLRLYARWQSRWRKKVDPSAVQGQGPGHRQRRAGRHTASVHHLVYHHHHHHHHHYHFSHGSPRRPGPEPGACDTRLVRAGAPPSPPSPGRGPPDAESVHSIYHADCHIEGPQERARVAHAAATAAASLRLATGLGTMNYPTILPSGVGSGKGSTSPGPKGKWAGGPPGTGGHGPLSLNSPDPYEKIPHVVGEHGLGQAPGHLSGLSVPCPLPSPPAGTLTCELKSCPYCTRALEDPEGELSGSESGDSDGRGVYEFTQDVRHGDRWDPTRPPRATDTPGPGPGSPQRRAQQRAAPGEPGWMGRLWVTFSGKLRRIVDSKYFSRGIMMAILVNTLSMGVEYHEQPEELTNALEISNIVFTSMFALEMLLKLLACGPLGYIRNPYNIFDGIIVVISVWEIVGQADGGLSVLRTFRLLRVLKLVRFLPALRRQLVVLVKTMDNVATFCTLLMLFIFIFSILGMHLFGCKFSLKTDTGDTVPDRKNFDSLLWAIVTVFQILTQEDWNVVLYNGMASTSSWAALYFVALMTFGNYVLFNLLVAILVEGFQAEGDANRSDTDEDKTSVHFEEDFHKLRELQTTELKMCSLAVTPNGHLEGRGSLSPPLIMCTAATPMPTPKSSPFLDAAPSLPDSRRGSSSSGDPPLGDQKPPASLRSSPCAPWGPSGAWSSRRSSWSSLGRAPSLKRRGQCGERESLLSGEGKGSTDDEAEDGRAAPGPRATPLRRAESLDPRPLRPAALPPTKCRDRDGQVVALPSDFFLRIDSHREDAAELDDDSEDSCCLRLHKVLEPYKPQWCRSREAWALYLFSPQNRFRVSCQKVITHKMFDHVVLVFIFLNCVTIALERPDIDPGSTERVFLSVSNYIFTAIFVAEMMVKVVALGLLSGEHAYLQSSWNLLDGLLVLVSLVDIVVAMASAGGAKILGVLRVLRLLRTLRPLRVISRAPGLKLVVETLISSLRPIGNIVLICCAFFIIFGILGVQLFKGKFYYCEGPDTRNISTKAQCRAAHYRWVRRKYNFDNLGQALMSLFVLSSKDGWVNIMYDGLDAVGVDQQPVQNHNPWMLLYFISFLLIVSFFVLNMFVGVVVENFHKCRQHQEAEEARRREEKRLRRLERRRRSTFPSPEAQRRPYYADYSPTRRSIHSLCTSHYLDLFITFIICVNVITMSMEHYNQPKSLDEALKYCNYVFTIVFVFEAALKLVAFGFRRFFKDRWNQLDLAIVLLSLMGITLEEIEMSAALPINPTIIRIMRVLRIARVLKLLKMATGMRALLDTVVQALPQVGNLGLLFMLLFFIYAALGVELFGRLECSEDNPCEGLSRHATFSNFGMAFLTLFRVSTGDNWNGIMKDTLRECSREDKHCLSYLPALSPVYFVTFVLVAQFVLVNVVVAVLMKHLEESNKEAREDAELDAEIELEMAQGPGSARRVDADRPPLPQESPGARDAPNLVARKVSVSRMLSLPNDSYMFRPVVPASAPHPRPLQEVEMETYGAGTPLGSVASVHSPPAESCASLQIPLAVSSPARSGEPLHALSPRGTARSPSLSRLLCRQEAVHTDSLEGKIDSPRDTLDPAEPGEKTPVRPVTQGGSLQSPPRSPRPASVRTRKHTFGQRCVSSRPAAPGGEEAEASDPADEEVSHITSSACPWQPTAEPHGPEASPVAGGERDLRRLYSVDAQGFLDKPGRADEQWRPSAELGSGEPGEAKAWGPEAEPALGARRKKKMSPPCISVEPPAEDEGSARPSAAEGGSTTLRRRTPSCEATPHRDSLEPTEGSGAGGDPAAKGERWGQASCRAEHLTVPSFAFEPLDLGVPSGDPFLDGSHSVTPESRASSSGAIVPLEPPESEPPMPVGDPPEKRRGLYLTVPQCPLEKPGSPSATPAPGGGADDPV
# Chain of Type-1 angiotensin II receptor (P30556 whole entry, the tested form may be a part): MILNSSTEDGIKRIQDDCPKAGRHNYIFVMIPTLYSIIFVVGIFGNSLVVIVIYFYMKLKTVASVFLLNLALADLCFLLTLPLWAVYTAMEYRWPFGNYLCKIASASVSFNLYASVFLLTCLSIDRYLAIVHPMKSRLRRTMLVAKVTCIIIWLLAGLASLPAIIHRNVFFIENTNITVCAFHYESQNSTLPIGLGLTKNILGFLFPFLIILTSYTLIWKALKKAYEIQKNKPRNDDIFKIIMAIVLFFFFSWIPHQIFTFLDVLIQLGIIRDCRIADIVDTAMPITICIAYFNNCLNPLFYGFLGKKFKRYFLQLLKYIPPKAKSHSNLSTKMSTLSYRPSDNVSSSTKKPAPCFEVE
# Chain of Coagulation factor XII (P00748 20-372 limits assumed): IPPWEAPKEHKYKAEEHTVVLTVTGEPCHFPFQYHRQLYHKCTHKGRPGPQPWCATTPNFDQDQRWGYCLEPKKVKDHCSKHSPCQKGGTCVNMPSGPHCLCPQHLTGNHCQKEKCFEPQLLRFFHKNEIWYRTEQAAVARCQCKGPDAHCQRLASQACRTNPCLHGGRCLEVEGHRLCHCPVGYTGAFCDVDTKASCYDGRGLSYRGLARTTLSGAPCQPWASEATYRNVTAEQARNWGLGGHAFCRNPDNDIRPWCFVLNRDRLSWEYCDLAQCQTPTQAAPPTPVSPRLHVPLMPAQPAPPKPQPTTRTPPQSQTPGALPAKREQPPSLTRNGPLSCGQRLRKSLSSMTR
# Chain of Coagulation factor XII (P00748 373-615 limits assumed): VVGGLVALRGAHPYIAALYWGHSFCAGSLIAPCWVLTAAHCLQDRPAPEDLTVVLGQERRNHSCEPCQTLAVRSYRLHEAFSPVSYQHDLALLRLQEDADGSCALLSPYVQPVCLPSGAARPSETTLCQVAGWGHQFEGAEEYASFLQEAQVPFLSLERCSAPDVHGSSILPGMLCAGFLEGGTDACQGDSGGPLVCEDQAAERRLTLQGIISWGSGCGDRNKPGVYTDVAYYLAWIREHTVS
# Chain of DNA damage-inducible transcript 3 protein (P35639 whole entry, the tested form may be a part): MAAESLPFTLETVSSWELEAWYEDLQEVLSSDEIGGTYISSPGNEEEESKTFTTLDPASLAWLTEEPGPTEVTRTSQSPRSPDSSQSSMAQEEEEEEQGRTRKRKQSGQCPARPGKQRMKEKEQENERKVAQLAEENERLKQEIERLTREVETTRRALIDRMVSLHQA
structure (smiles),measurement,setting,value
O=C(c1ccc(Cl)cc1)N1CCC(O)(CSc2ccc(Cl)cc2Cl)CC1,Absolute IC50 (CHOP),[1],10 µM
Nc1c(C(=O)NCCN2CCOCC2)c2nc3ccccc3nc2n1Cc1ccco1,IC50,[2],1.19 µM (active)
same,IC50,[3],> 100 µM (inactive)
same,IC50,[4],6.49 µM (not active)
CCCCCCCCCCCC(=O)N1CC(=O)NC(=O)C1,IC50,Coagulation factor XII,> 50 µM (inactive)
CCN(CC)CCCN(C(=O)c1ccco1)c1nc(-c2ccc(C)cc2)cs1,EC50,[5],> 195 µM (not active)
same,CC50,[6],38.2 µM (active)
same,CC50,[7],> 20 µM (active)
same,CC50,[8],> 20 µM (active)
same,IC50,cells,44.2 µM (active)
same,AC50,[9],20.7 µM (active)
Cc1cc(C)cc(Nc2nc3ccc(C)cc3n3cnnc23)c1,EC50,[10],20.5 µM (active)
same,EC50,[11],20.5 µM (inconclusive)
same,EC50,[12],> 120 µM (not active)
same,EC50,[13],16.6 µM (inconclusive)
same,EC50,[14],> 195 µM (inconclusive)
same,EC50,[15],> 195 µM (inactive)
same,EC50,[16],> 120 µM (not active)
same,EC50,[17],2.82 µM (active)
same,EC50,[18],16.6 µM (active)
CCOc1ccc2nc(N3C(=O)C(O)=C(C(=O)c4ccco4)C3c3ccco3)sc2c1 (stereo not given),IC50,[19],8.2 µM (inactive)
same,IC50,[20],3 µM (active)
same,EC50,[21],1.2 µM (active)
O=C(COc1ccc(F)c(Cl)c1)N[C@@H]1CCCN(Cc2ccccc2)C1,EC50,[22],10 µM (active)
CC1=CC(=O)C(C(C)C)=C/C1=N/OS(=O)(=O)c1ccccc1,EC50,Mucolipin-3,> 29.9 µM (not active)
same,CC50,[23],9.69 µM (active)
same,EC50,Ion channel NompC,> 29.9 µM (not active)
same,EC50,[24],4.19 µM (active)
same,EC50,[25],> 100 µM (inactive)
same,AC50,[26],3.61 µM (active)
same,IC50,[27],12 µM (active)
same,AC50,INS1,1.06 µM (active)
same,IC50,[28],7.38 µM (active)
same,IC50,Beta Lactamase,49.8 µM (inactive)
same,AC50,Paired box protein Pax-8,6.97 µM (active)

# — ChEMBL document CHEMBL1201862, “PubChem BioAssay data set” (2004)
